Assay results published in ChEMBL document CHEMBL1201862, “PubChem BioAssay data set” (2004).
Activity calls are given as the source filed them.

Columns and labels:
[1] = restored growth of temperature-sensitive Burl-1 yeast – whole organism, S. cerevisiae, Burl-1 ts mutant, luminescence, counter-screen for SUMOylation pathway inhibitor project, dose response (AID 463199); assay type: functional
A-375 [2] = assay: proliferation inhibition in MITF-low A375 cells – cell-based, cherry-pick samples, set 2, counter-screen for MITF modulator project, dose response (AID 540335); assay type: functional; details: Homo sapiens
A-375 [3] = assay: MITF: Counter assay: A375 proliferation Measured in Cell-Based System Using Plate Reader - 2084-03_Inhibitor_Dose_DryPowder_Activity. [Related pubchem assays (depositor defined):AID488944]; assay type: functional; details: Homo sapiens
Vero = assay: viability of Vero cells under compound – cytotoxicity control for flavivirus capping enzyme inhibitors (AID 588742); assay type: functional; details: Chlorocebus sabaeus
Genome polyprotein = Genome polyprotein (dengue virus type 2, UniProt P29990); assay: flavivirus cap methylation enzyme inhibition – biochemical, confirmation dose response, primary screen (AID 588689); assay type: functional
Sequence of Genome polyprotein (P29990 2492-3391 limits assumed): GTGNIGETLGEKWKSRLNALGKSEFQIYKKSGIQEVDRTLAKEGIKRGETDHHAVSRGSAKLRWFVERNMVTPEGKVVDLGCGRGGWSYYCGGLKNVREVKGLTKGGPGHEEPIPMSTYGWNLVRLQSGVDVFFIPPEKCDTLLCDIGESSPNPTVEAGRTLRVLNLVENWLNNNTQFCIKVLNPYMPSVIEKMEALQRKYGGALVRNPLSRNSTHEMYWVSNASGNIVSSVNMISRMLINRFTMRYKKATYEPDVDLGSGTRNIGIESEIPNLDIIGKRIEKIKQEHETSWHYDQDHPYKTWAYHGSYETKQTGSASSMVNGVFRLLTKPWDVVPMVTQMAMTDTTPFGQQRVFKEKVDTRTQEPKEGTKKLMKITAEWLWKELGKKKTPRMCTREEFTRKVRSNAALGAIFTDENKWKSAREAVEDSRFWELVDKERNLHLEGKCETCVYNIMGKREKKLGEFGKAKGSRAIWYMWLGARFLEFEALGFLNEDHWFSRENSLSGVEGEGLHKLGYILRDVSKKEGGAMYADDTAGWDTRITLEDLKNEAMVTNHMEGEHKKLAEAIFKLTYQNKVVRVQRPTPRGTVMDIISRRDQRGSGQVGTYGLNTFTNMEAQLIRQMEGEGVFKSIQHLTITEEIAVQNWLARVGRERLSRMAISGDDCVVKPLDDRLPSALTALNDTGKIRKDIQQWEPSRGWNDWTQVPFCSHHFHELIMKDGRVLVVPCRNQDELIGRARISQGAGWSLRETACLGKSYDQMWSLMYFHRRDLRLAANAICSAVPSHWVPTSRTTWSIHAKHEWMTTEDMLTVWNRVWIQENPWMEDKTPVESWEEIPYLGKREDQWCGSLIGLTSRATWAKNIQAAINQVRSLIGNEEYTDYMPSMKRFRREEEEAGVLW

[4] = target: T1, Corticotropin-releasing factor receptor 2/Corticotropin-releasing factor-binding protein (Homo sapiens, UniProt P24387+Q13324); assay: activators of CRF receptor 2 with binding protein – uHTS hits, confirmation (AID 602473); assay type: functional; details: read-out: EC50_Mean
T1 sequence (Q13324 whole entry): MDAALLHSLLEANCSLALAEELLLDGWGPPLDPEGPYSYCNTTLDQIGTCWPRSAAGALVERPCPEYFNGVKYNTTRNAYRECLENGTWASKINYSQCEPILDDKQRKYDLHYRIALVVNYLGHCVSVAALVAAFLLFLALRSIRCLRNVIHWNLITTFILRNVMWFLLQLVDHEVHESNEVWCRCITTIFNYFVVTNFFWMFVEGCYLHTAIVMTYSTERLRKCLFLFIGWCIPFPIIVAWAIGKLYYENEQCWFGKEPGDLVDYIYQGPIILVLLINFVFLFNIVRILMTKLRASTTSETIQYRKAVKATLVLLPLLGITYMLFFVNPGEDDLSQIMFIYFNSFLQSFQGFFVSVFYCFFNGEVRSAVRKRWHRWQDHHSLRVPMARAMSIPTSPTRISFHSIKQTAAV
T1 sequence (P24387 whole entry): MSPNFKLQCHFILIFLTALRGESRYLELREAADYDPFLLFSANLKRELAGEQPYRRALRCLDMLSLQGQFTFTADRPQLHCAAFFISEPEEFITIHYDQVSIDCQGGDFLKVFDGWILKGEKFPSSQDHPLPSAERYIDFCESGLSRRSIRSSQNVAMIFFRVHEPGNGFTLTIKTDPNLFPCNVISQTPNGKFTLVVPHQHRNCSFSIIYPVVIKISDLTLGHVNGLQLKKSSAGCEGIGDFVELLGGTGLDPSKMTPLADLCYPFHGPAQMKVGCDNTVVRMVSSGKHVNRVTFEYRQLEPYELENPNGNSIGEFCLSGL

[5] = target: Lysine-specific demethylase 4A (Homo sapiens, UniProt O75164); assay: inhibition of JMJD2A H3K9me3 demethylation – biochemical, DELFIA europium, cherry-picked samples, selectivity assay for GASC-1 inhibitor project, dose response (AID 488840)
Sequence of Lysine-specific demethylase 4A (O75164 whole entry): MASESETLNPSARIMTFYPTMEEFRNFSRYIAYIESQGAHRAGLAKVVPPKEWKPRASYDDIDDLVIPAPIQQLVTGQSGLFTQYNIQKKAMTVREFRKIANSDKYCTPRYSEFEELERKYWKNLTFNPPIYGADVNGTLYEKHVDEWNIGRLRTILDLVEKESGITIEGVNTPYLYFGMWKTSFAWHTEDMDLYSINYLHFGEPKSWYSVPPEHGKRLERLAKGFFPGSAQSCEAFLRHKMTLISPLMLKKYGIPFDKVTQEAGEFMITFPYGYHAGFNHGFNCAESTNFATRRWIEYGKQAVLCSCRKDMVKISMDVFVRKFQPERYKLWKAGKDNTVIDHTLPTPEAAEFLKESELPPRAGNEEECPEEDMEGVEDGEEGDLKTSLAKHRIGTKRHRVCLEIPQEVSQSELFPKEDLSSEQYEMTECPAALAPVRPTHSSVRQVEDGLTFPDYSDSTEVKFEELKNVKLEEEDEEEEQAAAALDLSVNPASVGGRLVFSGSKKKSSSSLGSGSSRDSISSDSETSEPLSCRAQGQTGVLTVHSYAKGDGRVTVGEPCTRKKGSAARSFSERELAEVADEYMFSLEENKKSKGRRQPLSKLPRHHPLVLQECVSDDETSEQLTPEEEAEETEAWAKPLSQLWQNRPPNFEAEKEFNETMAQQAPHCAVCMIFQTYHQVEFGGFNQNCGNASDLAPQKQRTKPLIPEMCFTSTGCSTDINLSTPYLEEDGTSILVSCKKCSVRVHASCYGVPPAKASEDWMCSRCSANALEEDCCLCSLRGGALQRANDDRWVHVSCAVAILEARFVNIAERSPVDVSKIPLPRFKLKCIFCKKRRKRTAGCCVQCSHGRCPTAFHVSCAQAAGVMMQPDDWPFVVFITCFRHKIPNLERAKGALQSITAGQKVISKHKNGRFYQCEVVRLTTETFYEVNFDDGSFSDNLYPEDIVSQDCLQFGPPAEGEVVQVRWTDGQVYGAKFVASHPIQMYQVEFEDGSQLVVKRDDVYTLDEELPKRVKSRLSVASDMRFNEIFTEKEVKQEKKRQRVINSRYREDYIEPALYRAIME

[6] = target: T1, Corticotropin-releasing factor receptor 2/Corticotropin-releasing factor-binding protein; assay: Dose Response confirmation of uHTS hits for small molecule antagonists of the CRF-binding protein and CRF-R2 receptor complex.; assay type: functional; details: read-out: IC50_Mean
[7] = target: NAD-dependent protein deacylase sirtuin-5, mitochondrial (Homo sapiens, UniProt Q9NXA8); assay: sirtuin-5 deacylation blockers, concentration series – biochemical, fluorescence imaging, cherry-pick, set 5, dose response (AID 720591);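 further: desuccinylation of succinyl peptide AMC substrate read as fluorescence after trypsin release; potency of inhibitors that lower fluorescence and may act on trypsin instead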
Sequence of NAD-dependent protein deacylase sirtuin-5, mitochondrial (Q9NXA8 whole entry): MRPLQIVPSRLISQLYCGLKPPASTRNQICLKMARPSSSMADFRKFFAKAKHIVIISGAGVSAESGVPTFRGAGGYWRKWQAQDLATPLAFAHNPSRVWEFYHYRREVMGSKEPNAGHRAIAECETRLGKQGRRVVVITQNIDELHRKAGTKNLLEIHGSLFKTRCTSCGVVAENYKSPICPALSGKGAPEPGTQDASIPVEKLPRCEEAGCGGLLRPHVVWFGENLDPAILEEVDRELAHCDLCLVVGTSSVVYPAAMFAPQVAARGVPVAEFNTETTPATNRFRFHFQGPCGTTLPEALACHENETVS

[8] = target: Lysine-specific demethylase 4C (Homo sapiens, UniProt Q9H3R0); assay: inhibition of JMJD2C H3K9me3 demethylation – biochemical, DELFIA europium, cherry-picked samples, dose response (AID 488835); assay type: functional
Sequence of Lysine-specific demethylase 4C (Q9H3R0 whole entry): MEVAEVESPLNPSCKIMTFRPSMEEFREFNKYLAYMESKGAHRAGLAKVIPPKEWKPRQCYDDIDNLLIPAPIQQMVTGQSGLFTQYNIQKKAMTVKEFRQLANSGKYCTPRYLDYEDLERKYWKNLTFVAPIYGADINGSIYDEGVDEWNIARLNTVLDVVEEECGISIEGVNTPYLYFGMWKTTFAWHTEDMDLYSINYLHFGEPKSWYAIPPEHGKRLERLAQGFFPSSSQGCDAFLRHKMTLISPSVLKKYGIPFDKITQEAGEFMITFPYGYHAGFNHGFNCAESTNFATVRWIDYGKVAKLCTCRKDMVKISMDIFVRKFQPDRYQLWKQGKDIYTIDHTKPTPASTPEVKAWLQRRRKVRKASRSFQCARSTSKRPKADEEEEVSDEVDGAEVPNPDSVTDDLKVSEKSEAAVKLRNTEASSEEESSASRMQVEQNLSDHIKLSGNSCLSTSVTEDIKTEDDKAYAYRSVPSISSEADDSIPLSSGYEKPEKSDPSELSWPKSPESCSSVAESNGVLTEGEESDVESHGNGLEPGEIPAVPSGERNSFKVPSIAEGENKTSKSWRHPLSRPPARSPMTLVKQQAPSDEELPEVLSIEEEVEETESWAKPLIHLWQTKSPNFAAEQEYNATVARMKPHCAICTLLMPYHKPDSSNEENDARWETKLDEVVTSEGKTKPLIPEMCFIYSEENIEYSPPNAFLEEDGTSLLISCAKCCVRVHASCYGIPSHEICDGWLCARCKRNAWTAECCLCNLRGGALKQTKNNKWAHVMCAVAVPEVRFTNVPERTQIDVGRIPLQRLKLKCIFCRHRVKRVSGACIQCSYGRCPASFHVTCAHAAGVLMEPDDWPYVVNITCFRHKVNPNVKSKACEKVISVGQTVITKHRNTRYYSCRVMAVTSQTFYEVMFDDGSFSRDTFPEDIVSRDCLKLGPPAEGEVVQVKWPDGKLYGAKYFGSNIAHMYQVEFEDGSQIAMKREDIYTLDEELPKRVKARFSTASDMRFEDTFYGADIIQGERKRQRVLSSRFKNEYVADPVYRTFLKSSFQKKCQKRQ

[9] = target: T2, Mannose-6-phosphate isomerase (Homo sapiens, UniProt P34949); assay: phosphomannose isomerase inhibition – biochemical, fluorescence intensity, confirmation (AID 1535)
T2 sequence (P34949 whole entry): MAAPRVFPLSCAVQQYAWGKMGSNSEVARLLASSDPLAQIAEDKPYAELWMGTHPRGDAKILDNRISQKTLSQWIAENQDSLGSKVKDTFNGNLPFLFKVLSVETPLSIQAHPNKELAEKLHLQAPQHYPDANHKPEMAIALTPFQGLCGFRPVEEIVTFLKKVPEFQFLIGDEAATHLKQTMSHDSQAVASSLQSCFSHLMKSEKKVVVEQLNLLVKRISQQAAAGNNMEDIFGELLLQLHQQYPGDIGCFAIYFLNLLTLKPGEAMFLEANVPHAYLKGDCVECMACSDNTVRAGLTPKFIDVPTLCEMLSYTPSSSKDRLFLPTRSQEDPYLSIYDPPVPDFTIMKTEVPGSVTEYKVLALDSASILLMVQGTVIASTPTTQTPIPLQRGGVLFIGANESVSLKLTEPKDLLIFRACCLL

[10] = target: Phosphoethanolamine/phosphocholine phosphatase (Homo sapiens, UniProt Q8TCT1); assay: SAR assay for compounds that inhibit PHOSPHO1. [Related pubchem assays (depositor defined):AID1545, AID1565, AID1574]
Sequence of Phosphoethanolamine/phosphocholine phosphatase (Q8TCT1 whole entry): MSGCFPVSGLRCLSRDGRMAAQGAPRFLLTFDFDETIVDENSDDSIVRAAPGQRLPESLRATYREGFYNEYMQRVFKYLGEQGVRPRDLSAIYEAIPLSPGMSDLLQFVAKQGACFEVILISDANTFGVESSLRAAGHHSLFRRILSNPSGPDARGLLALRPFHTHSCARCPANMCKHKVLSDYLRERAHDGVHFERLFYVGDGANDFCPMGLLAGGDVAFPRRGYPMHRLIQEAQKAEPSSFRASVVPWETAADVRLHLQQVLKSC

Phosphomannomutase 2 = Phosphomannomutase 2 (Homo sapiens, UniProt O15305); assay: Counter screen SAR assay for PMM2 inhibitors via a fluorescence intensity assay. [Related pubchem assays (depositor defined):AID1545, AID1574]
Sequence of Phosphomannomutase 2 (O15305 whole entry): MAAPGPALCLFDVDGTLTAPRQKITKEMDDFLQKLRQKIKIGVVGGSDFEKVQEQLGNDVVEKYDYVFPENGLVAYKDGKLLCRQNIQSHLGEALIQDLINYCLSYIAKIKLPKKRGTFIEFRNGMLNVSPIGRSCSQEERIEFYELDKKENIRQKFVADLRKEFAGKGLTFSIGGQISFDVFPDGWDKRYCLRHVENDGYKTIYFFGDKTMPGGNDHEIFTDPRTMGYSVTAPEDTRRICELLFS

[11] = T. cruzi infection blockers in NIH3T3 cells – beta-gal luminescence, NIH3T3 host cells, confirmation (AID 2630); assay type: functional, cell-based; details: Mus musculus
INS1 [12] = assay: beta-cell survival under cytokine stress – INS-1E, ATP luminescence, dry powder, dose response (AID 488844); assay type: functional, cell-based; details: Rattus norvegicus
[13] = luciferase reporter signal suppression in cells – H4 neuroglioma cells, luminescence, dose response (AID 1990); assay type: functional, cell-based
INS1 [14] = assay: INS-1E survival protection against cytokine death – cell-based, luminescence, retest, dose response (AID 449756); assay type: functional; details: Rattus norvegicus;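 further: cell death triggered by IL-1 beta plus TNF-alpha plus IFN-gamma mixture; protective hits raise ATP signal compared with cytokine alone wells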
[15] = target: T3, Dual specificity protein phosphatase 3 (Homo sapiens, UniProt P51452); assay: VHR1 phosphatase inhibitors, primary screen, biochemical, absorbance, uHTS (AID 1654)
T3 sequence (P51452 whole entry): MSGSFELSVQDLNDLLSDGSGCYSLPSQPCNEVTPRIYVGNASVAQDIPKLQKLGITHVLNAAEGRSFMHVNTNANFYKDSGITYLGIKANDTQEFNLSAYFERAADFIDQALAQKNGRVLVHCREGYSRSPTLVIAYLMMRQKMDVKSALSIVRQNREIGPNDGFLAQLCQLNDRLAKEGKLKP

[16] = Luminescence Cell-Based Dose Response HTS to Identify Inhibitors of 5'UTR Stem-Loop Driven Prion Protein mRNA Translation in H4 Neuroglioblastoma Cells. [Related pubchem assays: 1827 (Project Summary), 1813 (Primary HTS)]; assay type: functional
Bcl-2-like protein 1 = Bcl-2-like protein 1 (Homo sapiens, UniProt Q07817); assay: blockers of BCLXL peptide binding – biochemical, fluorescence polarization, 1536-well, selectivity assay for MCL1 inhibitor project, dose response (AID 2218)
Sequence of Bcl-2-like protein 1 (Q07817 whole entry): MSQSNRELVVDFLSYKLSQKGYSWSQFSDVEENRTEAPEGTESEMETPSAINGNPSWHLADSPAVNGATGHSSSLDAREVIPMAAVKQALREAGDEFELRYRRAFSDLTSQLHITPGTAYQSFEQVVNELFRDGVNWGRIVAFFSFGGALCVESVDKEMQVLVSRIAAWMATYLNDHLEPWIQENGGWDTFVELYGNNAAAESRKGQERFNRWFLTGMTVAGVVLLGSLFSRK

[17] = target: Induced myeloid leukemia cell differentiation protein Mcl-1 (Homo sapiens, UniProt Q07820); assay: blockers of MCL1 binding to BIM peptide – biochemical, fluorescence polarization, BIM-BH3 peptide, 1536-well, dose response (AID 2217)
Sequence of Induced myeloid leukemia cell differentiation protein Mcl-1 (Q07820 whole entry): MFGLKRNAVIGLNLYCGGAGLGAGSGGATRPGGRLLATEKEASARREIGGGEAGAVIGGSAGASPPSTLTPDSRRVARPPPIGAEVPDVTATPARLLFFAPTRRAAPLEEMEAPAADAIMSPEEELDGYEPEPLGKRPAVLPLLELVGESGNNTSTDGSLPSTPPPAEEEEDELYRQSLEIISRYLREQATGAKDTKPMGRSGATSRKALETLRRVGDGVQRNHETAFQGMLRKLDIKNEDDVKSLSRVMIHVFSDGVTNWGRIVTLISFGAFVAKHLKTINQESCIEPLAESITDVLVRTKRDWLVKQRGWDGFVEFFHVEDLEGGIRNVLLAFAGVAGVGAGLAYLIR

[18] = target: T4, Tyrosine-protein phosphatase non-receptor type 7 (Homo sapiens, UniProt P35236); assay type: functional
T4 sequence (P35236 whole entry): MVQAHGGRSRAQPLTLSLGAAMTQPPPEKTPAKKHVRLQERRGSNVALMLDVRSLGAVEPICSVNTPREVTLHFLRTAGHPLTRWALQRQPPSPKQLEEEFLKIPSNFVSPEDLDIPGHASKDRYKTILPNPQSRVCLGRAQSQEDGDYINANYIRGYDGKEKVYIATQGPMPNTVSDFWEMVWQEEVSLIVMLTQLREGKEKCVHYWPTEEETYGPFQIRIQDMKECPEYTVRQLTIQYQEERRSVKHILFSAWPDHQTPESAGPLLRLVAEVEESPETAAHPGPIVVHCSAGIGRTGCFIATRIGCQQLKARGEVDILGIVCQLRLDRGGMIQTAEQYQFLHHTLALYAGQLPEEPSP

[19] = target: T5, Tyrosine-protein phosphatase non-receptor type 22 (Homo sapiens, UniProt Q9Y2R2); assay type: functional
T5 sequence (Q9Y2R2 whole entry): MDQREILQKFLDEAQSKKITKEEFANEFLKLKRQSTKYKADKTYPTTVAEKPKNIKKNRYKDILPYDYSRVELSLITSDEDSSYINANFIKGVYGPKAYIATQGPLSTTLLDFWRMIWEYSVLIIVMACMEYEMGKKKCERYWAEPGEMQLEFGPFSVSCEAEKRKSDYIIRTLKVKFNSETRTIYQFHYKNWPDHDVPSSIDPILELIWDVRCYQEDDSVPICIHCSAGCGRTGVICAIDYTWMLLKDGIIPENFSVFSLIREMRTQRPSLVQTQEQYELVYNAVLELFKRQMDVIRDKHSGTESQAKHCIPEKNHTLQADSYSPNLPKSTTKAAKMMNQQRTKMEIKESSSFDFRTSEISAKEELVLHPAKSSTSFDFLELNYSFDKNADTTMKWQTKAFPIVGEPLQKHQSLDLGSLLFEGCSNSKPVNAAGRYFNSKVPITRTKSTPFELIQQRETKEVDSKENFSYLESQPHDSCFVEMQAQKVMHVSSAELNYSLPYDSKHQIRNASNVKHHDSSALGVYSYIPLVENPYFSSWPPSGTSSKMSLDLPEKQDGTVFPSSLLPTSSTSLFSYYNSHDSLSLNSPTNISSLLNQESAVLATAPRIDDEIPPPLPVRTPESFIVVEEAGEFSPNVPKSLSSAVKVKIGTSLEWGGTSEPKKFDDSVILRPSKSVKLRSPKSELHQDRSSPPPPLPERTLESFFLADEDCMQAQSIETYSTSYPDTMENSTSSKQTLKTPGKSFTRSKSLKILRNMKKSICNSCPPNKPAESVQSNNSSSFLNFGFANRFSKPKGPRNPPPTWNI

[20] = target: T6, Dual specificity protein phosphatase 6 (Rattus norvegicus, UniProt Q64346); assay: inhibition of rat DUSP6 enzyme activity – biochemical, in vitro, primary screen (AID 425)
T6 sequence (Q64346 whole entry): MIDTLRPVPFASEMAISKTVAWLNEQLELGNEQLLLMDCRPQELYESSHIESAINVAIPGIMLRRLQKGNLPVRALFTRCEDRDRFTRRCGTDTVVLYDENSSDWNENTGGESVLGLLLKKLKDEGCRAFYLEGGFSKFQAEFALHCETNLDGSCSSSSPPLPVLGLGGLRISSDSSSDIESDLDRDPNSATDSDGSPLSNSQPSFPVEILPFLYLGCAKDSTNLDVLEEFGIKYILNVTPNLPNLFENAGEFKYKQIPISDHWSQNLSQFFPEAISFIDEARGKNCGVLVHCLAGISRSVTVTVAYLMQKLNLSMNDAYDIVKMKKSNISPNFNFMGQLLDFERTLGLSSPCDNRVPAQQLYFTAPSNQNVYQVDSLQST

[21] = target: T3, Dual specificity protein phosphatase 3; assay: VHR1 phosphatase inhibitors, biochemical (AID 1878)
[22] = target: T5, Tyrosine-protein phosphatase non-receptor type 22; assay type: functional; remark: listed apart in the source
[23] = alpha-synuclein stem-loop luciferase translation blockers – H4 neuroglioma cells, luminescence, confirmation (AID 1988); assay type: functional, cell-based

C=CCN(C(=O)CNC(=O)c1ccco1)C(C(=O)NC1CCCCC1)c1ccccc1 (configuration not stated)
active: AC50 [1] 101 µM

O=C(NCCNc1ccccc1[N+](=O)[O-])c1cc(F)c(F)cc1Cl
active: AC50 (A-375 [2]) > 11 µM | AC50 (A-375 [3]) > 11 µM

CCc1ccc([C@@H]2CC=C(C(=O)O)[C@H](c3ccc(C(C)(C)C)cc3)N2S(=O)(=O)c2ccc(C)cc2)cc1
active: CC50 (Vero) > 40 µM | IC50 (Genome polyprotein) 37 µM | EC50 [4] 27.8 µM | AC50 [5] 9.31 µM | IC50 [6] < 368 nM | AC50 [7] 13.5 µM | AC50 [8] 14.8 µM

O=C1c2ccccc2C(=O)c2c1ccc1c(=O)n(-c3ccccc3)sc21
inactive: IC50 [9] > 50 µM | IC50 [10] 1.96 µM | IC50 (Phosphomannomutase 2) > 100 µM

COc1ccc(C(=O)C2CCCN(CC3CCCCC3)C2)cc1OC (configuration not stated)
active: EC50 [11] 452 nM

C[C@@H]1CN([C@H](C)CO)C(=O)c2cccc(NC(=O)Nc3ccccc3)c2O[C@H]1CN(C)S(=O)(=O)c1ccc(F)cc1
active: AC50 (INS1 [12]) 38.3 µM

COc1cccc(/C=N/NC(=O)c2cc3cc([N+](=O)[O-])ccc3s2)c1O
116 µM (not active): IC50 [20]
> 109 µM (not active): IC50 (Bcl-2-like protein 1)
active: EC50 [13] 7.1 µM | AC50 (INS1 [14]) 3.15 µM | IC50 [15] 25.2 µM | EC50 [16] 9.8 µM | IC50 [17] 2.02 µM | IC50 [18] 14.9 µM | IC50 [19] 15.7 µM | IC50 [21] 5.31 µM | IC50 [22] 13.1 µM | EC50 [23] 7.86 µM
